Test results: patent US8399466B2, “Composition for regenerative treatment of cartilage disease” (Mitsubishi Tanabe Pharma Corporation, priority 2001, dated 2013)

Experiments:
articular chondrocytes = assay: Increase of matrix production of articular chondrocytes (Alcian blue staining of proteoglycan); assay type: cell-based, rabbit; conditions: for Proteoglycan Production (%): cultivation until day 5, vehicle = 100; for matrix production promoting activity: summary of Table 1
Protocol: Four NZW line rabbits (Kitayama Labes., Co Ltd.; male; 4-week-old) were sacrificed with bleeding under ether anesthesia and femur knee joints were collected aseptically. The collected knee joints were stored in phosphate buffer (pH 7.2) containing 0.2% glucose and only the cortical layer of knee joint was scrapped with a surgical knife into a 50 ml tube containing phosphate buffer (pH 7.2) containing 0.2% glucose. The collected knee joint cortical layer was cut into as small sections as possible on a dish with a razor and shaken at 37° C. for 15 minutes in phosphate buffer containing 0.2% glucose, supplied with 10× trypsin-ethylenediamine tetraacetic acid (EDTA)·4 Na salt (GIBCO; Cat. No. 15400-054) (50 ml, with 100 mg of trypsin and 40 mg of EDTA·4Na; pH 7.2). After shaking, the sample was centrifuged (1,400 rpm) to collect precipitates, and the precipitates were washed twice with 40 ml of phosphate buffer containing 0.2% glucose. The washed precipitates were combined with 40 ml of serum-free α-minimum essential medium (MEM: GIBCO; Cat: No. 12571-063) containing 60 mg of collagenase for cell diffusion (Wako Pure Chemical Industries, Ltd., 034-10533) and transferred to a 100 ml beaker containing a sterilized stirrer bar. Under stirring with the stirrer bar, the collagenase digestion was carried on for about 1 hour in a CO2 incubator at 37° C. Cartilage fragments were removed from the collagenase-treated cells using a […] Cell Strainer ([FALCON; Cat. No. 2340]). To the residual treated cells was added 10 ml of α-MEM medium containing 10% fetal calf serum (FCS), and centrifuged (1,400 rpm). The precipitates were washed with 10% FCS-αMEM medium twice, suspended in appropriate volume of the same medium and the resultant suspension was seeded into collagen type II (Wako Pure Chemical Industries, Ltd., 033-13901)-coated plates (48 well) at 20,000 cells/well. On the next day, the medium was replaced with 10% FCS-αMEM medium.
When cells reached to confluent after the medium exchange procedure above, the medium for test group was replaced with test compound-containing medium (including 0.1% dimethylsulfoxide as a vehicle). As a medium to which a test compound is added, 10% FCS-αMEM medium containing 0.2 mM ascorbic acid was used. The day on which test compound-containing medium was added for the first time was defined as “day 1”. The medium exchange with the same medium was again conducted at day 3 and the cultivation continued until day 5. As to the control group, the medium was exchanged at the same time using the same medium as the test group except that it is free of test compound (containing vehicle only), and the cultivation was carried out in the same manner. After completion of cultivation, the supernatant was removed from the culture medium. Cells were fixed by addition of 0.25 ml of neutral buffer containing 4% paraformaldehyde and incubation for 2 hours. Cells were washed three times with 1 ml of phosphate buffer (pH 7.2) and then stained for 4 hours with 0.1% Alcian blue 8GX (Sigma; A3157) dissolved in 0.1 M hydrochloric acid, which Alcian blue selectively stains cartilage matrix proteoglycan. After staining, the cells were washed 3 times with 1 ml of phosphate buffer (pH 7.2). Alcian blue which had stained cartilage matrix was dissolved with 0.25 ml of aqueous 6 M guanidine hydrochloride solution and a portion of the solution was used to determine the absorbance at 620 nm. The amounts of Alcian blue used for staining was calculated from the absorbance, which in turn was used for the estimation of the amount of matrix (proteoglycan).

[1] = test system: cAMP hydrolytic PDE expressed in human articular cartilage (fraction Nos. 28-30); assay: Inhibition of cAMP hydrolyzing activity of fraction Nos. 28-30 of human articular cartilage extract; assay type: biochemical
Protocol: From the human knee articular cartilage was isolated on surgery of osteoarthrosis patients. Cartilage portion was scrapped with a surgery knife, washed with ice-cold phosphate buffer and stored at −80° C. The cartilage tissues were milled at −80° C. and then, scattered into pieces with homogenizer (Kinematica A.G., Polytron) in ice-cold homogenization buffer (20 mM Tris-HCl, pH 8.0, 1 mM ethylene glycol bis(β-aminoethylether)-N,N,N′,N′-tetraacetic acid, 1 mM dithiothreitol, 10 μg/ml leupeptin, 5 mM benzamidine, 0.2 mM phenylmethylsulfonyl fluoride, 1 mM sodium azide and 5 mM mercaptoethanol). The resultant homogenate was centrifuged (100,000×g; 30 minutes) to separate supernatant.
The above supernatant was loaded on a Mono Q Sepharose High Performance column (Amersham Pharmacia Biotech) equilibrated with elution buffer (20 mM Tris-HCl, pH 8.0, 1 mM ethylene glycol bis(β-aminoethylether)-N,N,N′,N′-tetraacetic acid, 1 mM dithiothreitol, 2 μg/ml leupeptin, 5 mM benzamidine). After washing the column with 20 ml of elution buffer, proteins were eluted into 1 ml fractions by aqueous sodium chloride solution (concentration gradient: 0 to 1000 mM, 70 ml) under ice-cooling. Each fraction was subjected to the determination of hydrolytic activity (PDE activity) toward cAMP and cGMP as a substrate.
The determination of PDE activity was performed by a radio-labeled nucleic acid assay. That is, the reaction was initiated by adding from 10 to 50 μl of elution fraction to 500 μl of assay buffer (50 mM Tris-HCl, pH 8.0, 5 mM magnesium chloride, 4 mM 2-mercaptoethanol) containing 1 μM of unlabeled cAMP and 22 nM of [^3H]-cAMP (Amersham Pharmacia Biotech).
After incubation at 37° C. for 30 minutes, the reaction was quenched by boiling for 1.5 minutes. Then, 100 μl of 1 mg/ml Crtalus atrox snake venom was added and incubated at 37° C. for 30 minutes. After addition of 500 μl of methanol, the reaction solution was subjected to Dowex column (1×8-400). To each eluate was added a liquid scintillation cocktail and the radio activity was measured.
The inhibitory activity of PDE4 inhibitor on fraction Nos. 28-30 containing potent cAMP hydrolyzing activity was measured according to the above-mentioned radio-labeled nucleic acid assay. The test compounds are Compound (1), Compound (2), Compound (11), Compound (44) and Compound (27).

aggrecan gene = assay: Expression of gene encoding cartilage matrix protein (Northern hybridization), aggrecan; assay type: cell-based, rabbit; conditions: cultured 4 days, control = 100%
Protocol: (§1) Total RNA was extracted with ISOGEN (Nippon Gene Co., Ltd.) from rabbit knee articular chondrocytes cultured for 4 days according to the same manner as Experimental Example 1 in the presence of Compound (1) at a final concentration of 1×10^−4 M or 1×10^−5 M, and 15 μg of the total RNA was dissolved in 4.5 μl of a sterilized water. This solution was combined with 2 μl of 5×MOPS buffer, 3.5 μl of formaldehyde and 10 μl of formamide, and denatured at 90° C. for 15 minutes. The mixture was then electrophoresed on 1% agarose gel in the presence of formaldehyde. After completion of electrophoresis, RNA was transferred to a nylon membrane (Amersham Pharmacia Biotech) overnight by capillary method. The RNA was fixed to the nylon membrane by UV crosslinking and subjected to prehybridization at 60° C. for 2 hours in 50 ml of hybridization solution (6×SSC, 5×Denhart's solution, 0.5% SDS, 100 μg/ml heat-denatured salmon sperm DNA, free of 50% formamide).
(§2) Then, DNA probes of mouse type II collagen gene and human aggrecan. […] The nylon membrane was subjected to an autoradiography and exposed to X-ray film using LAS-1000 (Fuji Photo Film Co., Ltd.) A relative amount of each RNA was measured using Image Gause (Fuji Photo Film Co., Ltd.) and corrected with […] (internal RNA: internal control). The gene expression rate in test group was calculated by assuming that in control group as 100%.

type II collagen gene = assay: Expression of gene encoding cartilage matrix protein (Northern hybridization), type II collagen; assay type: cell-based, rabbit; conditions: cultured 4 days, control = 100%
Protocol: as §1, §2

[2] = test system: rabbit articular chondrocytes; assay: Matrix production of rabbit articular chondrocytes in the presence of IL-1; assay type: cell-based; conditions: 1 × 10^−6 M; IL-1β 1 ng/ml; until day 3; vehicle = 100
Protocol: Four NZW line rabbits (Kitayama Labes., Co Ltd.; male; 4-week-old) were sacrificed with bleeding under ether anesthesia and knee joints of femur side were collected aseptically. Only the cortical layer was scrapped with a surgical knife in phosphate buffer (pH 7.2) containing 0.2% glucose and then placed into a 50 ml tube containing phosphate buffered saline containing 0.2% glucose. The collected knee joint cortical layer was cut into as small sections as possible on a dish with a razor, combined with 50 ml of phosphate buffer (100 mg trypsin, 40 mg EDTA·4 Na; pH 7.2) containing 0.2% glucose, supplied with 10× trypsin-ethylenediamine tetraacetic acid tetra sodium salt (EDTA·4Na: GIBCO; Cat. No. 15400-054) and shaken at 37° C. for 15 minutes.
After shaking, the precipitates were collected by centrifugation (1,400 rpm) and washed twice with 40 ml of phosphate buffer (pH 7.2) with 0.2% glucose.
To the washed precipitates was added 40 ml of α-minimum essential medium (MEM: GIBCO; Cat. No. 12571-063) containing 60 mg of collagenase for cell diffusion (Wako Pure Chemical Industries, Ltd., 034-10533) and antibiotics (200 U/ml penicillin G and 200 μg/ml streptomycin sulfate) (GIBCO; Cat. No. 15140-122), and the mixture was transferred to a 100 ml beaker containing a sterilized stirrer bar.
The incubation was conducted in a CO2 incubator at 37° C. for 30 minutes under stirring with a stirrer bar. Deoxyribonuclease I (Takara Shuzo Co., LTD.; Cat. No. 2210A) was then added at a concentration of 70 U/ml. The cultivation was conducted under the same condition for another 30 minutes. The supernatant of the culture was collected in another vessel and the remaining cartilage slips were then cultured again for about 30 minutes in freshly prepared α-minimum essential medium containing 60 mg of collagenase and 70 U/m1 deoxyribonuclease I.
To the previously collected culture supernatant and the last culture, from which cartilage slips had been removed using a 40 μm Cell Strainer (FALCON; Cat. No. 2340), 10 ml of α-minimum essential medium (MEM: GIBCO; Cat. No. 12571-063) containing 10% fetal calf serum (GIBCO Cat. No. 10099-141) and antibiotics (200 U/ml penicillin G and 200 μg/ml streptomycin sulfate) (GIBCO; Cat. No. 15140-122) was added and centrifuged (1,400 rpm, 10 minutes).
The precipitates were washed twice with α-minimum essential medium containing 10% fetal calf serum and antibiotics, suspended with an appropriate volume of the same medium, and seeded into 48-well plates (20,000 cells/well). […]
After staining, the cells were washed 3 times with 1 ml of phosphate buffer (pH 7.2). Alcian blue which had stained cartilage matrix was dissolved with 0.25 ml of 6 M aqueous guanidine hydrochloride solution and a portion of which was used to determine the absorbance at 620 nm. […]

Row | Structure (SMILES) | Proteoglycan Production (%) (articular chondrocytes; 1 × 10^−5 M) | matrix production promoting activity (articular chondrocytes) | Proteoglycan Production (%) [2] [%] | Proteoglycan Production (%) (articular chondrocytes; 1 × 10^−6 M) | further results
1 | CCOc1cc2cc(CO)c(CO)c(-c3ccn(CCOC)c(=O)c3)c2cc1OCC [Compound (1)] | 133 | exert matrix production promoting activity |  |  | Proteoglycan Production (%) (articular chondrocytes; 1 × 10^−4 M): 144%; inhibition of the hydrolytic activity of the fraction ([1]; fraction Nos. 28-30, FIG. 4): inhibits the hydrolytic activity of the fraction strongly; IC50 for fraction(s) ([1]; method of Journal of Medicinal Chemistry, vol. 42, 1088-1099 (1999), values only in FIG. 4): consistent with the IC50 of PDE4 inhibition activity described in the same literature; Expression of aggrecan gene (%) (aggrecan gene; 10^−4 M): 4262%; Expression of aggrecan gene (%) (aggrecan gene; 10^−5 M): 2693%; Expression of Type II collagen gene (%) (type II collagen gene; 10^−4 M): 406%; Expression of Type II collagen gene (%) (type II collagen gene; 10^−5 M): 278%
2 | COc1cc2c(cc1OC)C(c1ccnc(-n3ccc4c(OCCN5CCOCC5)cccc4c3=O)c1)=N[C@H](CO)C2 [Compound No. 52] |  |  | 209 |  | 
3 | COc1ccc([C@H](Cc2ccncc2)c2ccccc2)cc1OC1CCCC1 [Compound (21)] | 120 | exert matrix production promoting activity |  | 115 | 
4 | COc1cc2cc(CO)c(CO)c(-c3ccnc(-n4ccc5ccccc5c4=O)c3)c2cc1OC [Compound No. 56] |  |  | 168 |  | 
5 | COc1ccc([C@]2(C#N)CC[C@H](C(=O)O)CC2)cc1OC1CCCC1 [Compound (27)] | 131 | exert matrix production promoting activity |  | 129 | 
6 | COc1ccc(/C(C)=N/OC(N)=O)cc1OC1CCCC1 [Compound (9)] | 138 | exert matrix production promoting activity |  | 128 | 
